In PMC12737277, “Ecotoxicity of Nitrated Monoaromatic Hydrocarbons in Aquatic Systems: Emerging Risks from Atmospheric Deposition of Biomass Burning and Anthropogenic Aerosols” (Toxics, 2025):
Like-named read-outs stand apart in the source and are kept apart here.

Key:
Oct1 = biological target: T1, Oct1 (Danio rerio, UniProt A0A8N1Z2B5); assay: inhibition of ASP+ uptake in transfected cells, fluorescence; format: cell-based; details: 0.5 µM ASP+, mock cells subtracted
T1 construct: gene slc22a2; full-length transporter stably expressed in Flp-In-293 cells (Flp-In-293-drOct1)
T1 sequence (A0A8N1Z2B5 1-562): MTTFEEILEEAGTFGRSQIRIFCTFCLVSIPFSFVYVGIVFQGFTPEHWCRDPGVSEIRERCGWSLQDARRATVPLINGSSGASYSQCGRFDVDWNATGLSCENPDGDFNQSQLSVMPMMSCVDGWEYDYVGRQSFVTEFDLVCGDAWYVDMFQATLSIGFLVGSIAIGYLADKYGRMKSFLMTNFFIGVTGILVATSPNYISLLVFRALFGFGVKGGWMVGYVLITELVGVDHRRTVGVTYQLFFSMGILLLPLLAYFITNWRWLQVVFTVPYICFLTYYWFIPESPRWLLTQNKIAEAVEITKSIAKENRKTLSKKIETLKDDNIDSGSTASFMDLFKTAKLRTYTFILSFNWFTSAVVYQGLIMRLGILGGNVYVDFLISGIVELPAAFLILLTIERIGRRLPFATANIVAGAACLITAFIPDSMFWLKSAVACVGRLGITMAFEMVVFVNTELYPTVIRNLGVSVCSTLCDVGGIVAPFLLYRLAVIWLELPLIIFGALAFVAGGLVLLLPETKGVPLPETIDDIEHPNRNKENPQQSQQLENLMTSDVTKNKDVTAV

Oatp1d1 = biological target: T2, Oatp1d1 (Danio rerio, UniProt A0A8M9PU70); assay: inhibition of Lucifer yellow uptake in transfected cells, fluorescence; format: cell-based
T2 construct: gene slco1d1; full-length transporter stably expressed in Flp-In-293 cells (Flp-In-293-drOatp1d1)
T2 sequence (A0A8M9PU70 1-689): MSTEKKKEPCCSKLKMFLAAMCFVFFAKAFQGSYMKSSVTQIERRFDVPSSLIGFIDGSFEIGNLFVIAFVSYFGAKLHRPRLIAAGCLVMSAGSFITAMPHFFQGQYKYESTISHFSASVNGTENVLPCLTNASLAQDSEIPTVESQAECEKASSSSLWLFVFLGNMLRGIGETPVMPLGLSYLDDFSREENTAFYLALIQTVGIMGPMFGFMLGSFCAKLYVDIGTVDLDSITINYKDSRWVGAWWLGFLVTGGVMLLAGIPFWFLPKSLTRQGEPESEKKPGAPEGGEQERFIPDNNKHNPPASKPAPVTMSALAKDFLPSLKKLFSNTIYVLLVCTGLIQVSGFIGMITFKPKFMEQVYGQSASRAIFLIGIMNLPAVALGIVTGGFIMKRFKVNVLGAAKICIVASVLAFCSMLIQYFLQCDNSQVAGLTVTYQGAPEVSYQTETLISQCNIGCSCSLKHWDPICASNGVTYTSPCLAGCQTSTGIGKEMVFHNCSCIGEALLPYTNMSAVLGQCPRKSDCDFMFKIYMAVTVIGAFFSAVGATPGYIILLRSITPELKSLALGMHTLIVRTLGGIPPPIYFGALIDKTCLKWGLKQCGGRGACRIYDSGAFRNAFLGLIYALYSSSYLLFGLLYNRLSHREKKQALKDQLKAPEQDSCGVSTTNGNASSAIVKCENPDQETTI

[1] = 50 µM Lucifer yellow, mock cells subtracted

Row | IC50 (Oct1; read-out: IC50 (converted)) [µM] | Compound | IC50 (Oct1) | IC50 (Oatp1d1; [1]) | IC50 (Oatp1d1; read-out: IC50 (converted)) [µM]
1 | – | Cc1c([N+](=O)[O-])ccc(O)c1O [3M4NC] | particularly 3M5NC, 3M4NC, and 4NC, exhibited the strongest interactions with Oct1 | all compounds except 4NP showed interaction with LY uptake | –
2 | – | Cc1cc([N+](=O)[O-])cc(O)c1O [3M5NC] | particularly 3M5NC, 3M4NC, and 4NC, exhibited the strongest interactions with Oct1 | all compounds except 4NP showed interaction with LY uptake | –
3 | 496 | O=C(O)c1cccc([N+](=O)[O-])c1O [3NSA] | – | all compounds except 4NP showed interaction with LY uptake | –
4 | – | O=[N+]([O-])c1ccc(O)c(O)c1 [4NC] | particularly 3M5NC, 3M4NC, and 4NC, exhibited the strongest interactions with Oct1 | all compounds except 4NP showed interaction with LY uptake | –
5 | – | O=[N+]([O-])c1ccc(O)cc1 [4NP] | – | – | > 719
6 | – | COc1cc([N+](=O)[O-])cc(OC)c1O [4NS] | All tested NMAHs interfered with ASP+ uptake via Oct1 | all compounds except 4NP showed interaction with LY uptake | –
7 | 529 | O=C(O)c1cc([N+](=O)[O-])ccc1O [5NSA] | – | – | 14.2
